Results published in patent publication US11986459B2, “Methods for the treatment of Mycobacterium infections” (University of South Florida, priority 2020, dated 2024).
In brackets after ≈: the same amount, converted by molar mass. Like-named read-outs stand apart in the source and are kept apart here.

Legend:
[1] = tested on: replicating stage M. tuberculosis (Mtb); assay: MIC against replicating Mtb; type: cell-based, Mycobacterium tuberculosis; conditions: for MIC: Mycobacterium tuberculosis
zebrafish embryos = conditions: reported in literature; cited from earlier work
[2] = tested on: murine macrophage cell line J774; assay: Cytotoxicity assay with J774 macrophages; conditions: for IC50: Mus musculus
α-glucosidase = conditions: literature ref 12; read-out: α-glucosidase inhibition activity IC50; cited from earlier work
[3] = target: acetylcholinesterase (AchE) (Homo sapiens, UniProt P22303); conditions: literature ref 13; read-out: IC50 against acetylcholinesterase (AchE); cited from earlier work
Chain of acetylcholinesterase (AchE) (P22303 32-614): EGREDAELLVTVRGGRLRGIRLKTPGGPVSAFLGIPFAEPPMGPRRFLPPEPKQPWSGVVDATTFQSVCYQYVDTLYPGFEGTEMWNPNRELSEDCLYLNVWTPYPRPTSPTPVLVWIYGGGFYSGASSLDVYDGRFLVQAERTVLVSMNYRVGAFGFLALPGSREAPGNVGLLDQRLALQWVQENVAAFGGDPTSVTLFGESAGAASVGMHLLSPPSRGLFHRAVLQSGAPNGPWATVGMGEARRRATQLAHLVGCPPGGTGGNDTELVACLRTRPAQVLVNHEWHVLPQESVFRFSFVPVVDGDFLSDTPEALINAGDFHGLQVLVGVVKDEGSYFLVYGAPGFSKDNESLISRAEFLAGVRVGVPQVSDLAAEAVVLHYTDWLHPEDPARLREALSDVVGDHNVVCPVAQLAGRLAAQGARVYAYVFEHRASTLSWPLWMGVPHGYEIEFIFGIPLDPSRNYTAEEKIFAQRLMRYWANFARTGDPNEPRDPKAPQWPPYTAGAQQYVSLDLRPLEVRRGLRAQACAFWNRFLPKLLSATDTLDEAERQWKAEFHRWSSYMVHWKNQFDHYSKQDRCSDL

M. abscessus (Mab) = M. abscessus (Mab) inhibition; type: cell-based, Mycobacterium abscessus; conditions: Table 10; pure compounds
S. pyogenes = conditions: reported in literature; cited from earlier work
S. typhimurium = conditions: reported in literature; cited from earlier work
S. aureus = conditions: reported in literature; cited from earlier work
E. co/i = conditions: reported in literature; cited from earlier work
C. albicans = conditions: reported in literature; cited from earlier work
MRSA = conditions: literature ref 20; cited from earlier work
[4] = Table 10, pure compounds, replicating Mtb, read-out: MIC (Mtb-rep)

CC[C@H](C)/C=C(C)/C=C/C(=O)Cc1cc(O)c(C)c(O)c1C=O [EtOAc-D, 2,4-dihyroxy-6-(5,7-dimethyl-2-oxo-trans-3-trans-5-nonadienyl)-3-methylbenzaldehyde]
MIC ([1]; read-out: MIC (Mtb-rep)): ~50 µg/mL (≈ 158 µM) | effect on exposed zebrafish embryos (zebrafish embryos): severely impaired heart morphology and curved trunk | IC50 ([2]; J774, read-out: IC50 (J774)): ~200 µg/mL (≈ 632 µM)

C[C@@H]1CC(=O)CCCCCc2cc(O)cc(O)c2C(=O)O1 [(3R)-5-oxo-de-O-methyllasiodiplodin]
IC50 (α-glucosidase): 54.6 µM

COc1ccc(-c2cc3c(c(=O)o2)C[C@]2(O)[C@@]4(C)CCC(=O)C(C)(C)[C@]4(O)CC[C@@]2(C)O3)cc1 [terreulactone C]
IC50 [3]: 0.028 µM

C/C=C(/C(=O)O)N1C(=O)C=C(C)C1=O [EtOAc-G-4, pencolide]
MIC [1, 4]: 50 µg/mL (≈ 256 µM) | M. abscessus (M. abscessus (Mab)): 100 µg/mL | activity against S. pyogenes (S. pyogenes): inhibition | activity against S. typhimurium (S. typhimurium): inhibition | inhibition of S. aureus (S. aureus): inhibition | inhibition of E. co/i (E. co/i): inhibition | inhibition of C. albicans (C. albicans): inhibition

CC[C@H](C)/C=C(C)/C=C/C1=CC2=C(Cl)C(=O)[C@](C)(OC(C)=O)C(=O)C2=CN1CCO [EtOAc-O-7, Isochromophilone VI]
selectivity index (SI) ([1]; IC50 (J774) over MIC (Mtb)): 10.78 | MIC [1, 4]: 18.6 µg/mL (≈ 42.9 µM) | MIC ([1]; text b208, FIG. 11, replicating Mtb, read-out: MIC): 18 µg/mL (≈ 41.5 µM) | bioactivity against replicating Mtb (in words) ([1]; conclusion b210): promising bioactivity | activity against S. pyogenes (S. pyogenes): bioactivity | activity against S. typhimurium (S. typhimurium): bioactivity | IC50 ([2]; J774): 200 µg/mL (≈ 461 µM) | IC50 ([2]; J774, read-out: IC50 (J774)): ~200 µg/mL (≈ 461 µM) | cytotoxicity (in words) ([2]; conclusion b210, J774): low cytotoxicity

C[C@@H]1CCC[C@H](O)CCCc2cc(O)cc(O)c2C(=O)O1 [(3R,7R)-7-hydroxy-de-O-methyllasiodiplodin]
IC50 (α-glucosidase): 25.8 µM

COc1cc(CC(=O)CO)c(C=O)c(O)c1C [EtOAc-M-6-3]
MIC [1, 4]: 50 µg/mL (≈ 210 µM) | M. abscessus (M. abscessus (Mab)): 100 µg/mL

CCC(C)/C=C(C)/C=C/C1=CC2=C(Cl)C(=O)C(C)(OC(C)=O)C(=O)C2=CN1CCCC(=O)O (stereo not drawn) [Isochromophione IX, isochromophilone IX]
MIC, inhibition against MRSA (MRSA): 50 µg/mL (≈ 105 µM)

COc1cc2c(c(O)c1C)COC2=O [EtOAc-F-8-3, 4-hydroxy-6-methoxy-5-methyl-1(3H)-isobenzofuranone]
MIC [1, 4]: 200 µg/mL (≈ 1030 µM) | M. abscessus (M. abscessus (Mab)): 200 µg/mL
